Results from patent US12280060B2, “Methods of treating cancer using neuronal activity inhibiting agents” (Washington University, priority 2021, dated 2025).
Entries after “also recorded” stand apart in the source; their conditions may differ.

Experiments:
neurofibromas = settings: cited from earlier work
Nf1+/neo RGC neurons = type: cell-based, mouse
[1] = test system: Nf1+/neo hippocampal neurons; type: cell-based, mouse
Nf1+/neo DRG neurons = type: cell-based, mouse
midkine [2] = type: cell-based, mouse
midkine [3] = type: cell-based, mouse; remark: listed apart in the source
Col1a2 [4] = type: cell-based, mouse
RAS = type: cell-based, mouse
[5] = test system: Nf1+/neo and Nf1-OPG mice; experiment: In vivo treatment: Mdk/midkine, Nlgn3, Adam10 expression in retinae and optic nerves; set-up: species or system mouse; settings: for effect on midkine expression in the RGC layer of retinae: 12-week-old Nf1-OPG mice, LTR or lovastatin in vivo; for effect on Nlgn3 RNA expression in vivo: retinae / optic nerves of Nf1+/neo or Nf1-OPG mice
Protocol: Supplementary Table 2) and TaqMan Fast Advanced Master Mix (Applied Biosystems) according to the manufacturer's instructions. All reactions were performed using the Bio-Rad CFX96 Real-Time PCR system equipped with Bio-Rad CFX Manager 3.1 software. Gene expression levels of technical replicates were estimated by ΔΔCt method using GAPDH or Gapdh (see e.g., TABLE 2) as reference genes. In total, 17 Nf1^flox/neo; GFAP-Cre (Nf1-OPG) mice were intraperitoneally administered vehicle (saline in 1% methylcellulose; n=9) or 25 mg/Kg body weight lamotrigine (Selleckchem; n=8) from four to six weeks of age, three times a week. The mice were then aged to 12 weeks for optic nerve and RGC analysis. […] The mice were analyzed at 12 weeks of age. […] These mice were analyzed at 24 weeks of age. […] These mice were analyzed at 12 weeks of age. For pNF analyses, Nf1^−/− DRG-NSCs were implanted in sciatic nerves of 8-week-old athymic nude mice as previously described. Briefly, the mice underwent surgery to create a pocket by displacing the quadriceps muscle and exposing their sciatic nerve. In all, 1×10^6 Nf1^−/− DRG-NSCs were implanted in the pocket around the sciatic nerve, such that the cells could be in direct contact with the nerve before the muscle and skin were sutured. Following recovery from the surgery, the mice were intraperitoneally administered vehicle (saline in 1% methylcellulose; n=5) or 25 mg/kg body weight lamotrigine (Selleckchem; n=5) three times a week for 6 weeks prior to histological analysis.

[6] = test system: Nf1f/neo; hGFAP-Cre (Nf1-OPG) mice; experiment: In vivo Nf1-OPG (optic pathway glioma) progression; set-up: species or system mouse; settings: for optic nerve proliferation (% Ki67+ cells), fold decrease: mouse, in vivo
[7] = test system: NF1-pNFs in athymic nude mice; experiment: In vivo pNF progression (Nf1-/- DRG-NSCs implanted in sciatic nerve); set-up: species or system mouse
Midkine [8] = experiment: Mdk (Midkine transcript) levels in Nf1-mutant neurons; type: cell-based
Protocol: (§1) Nf1-mutant neurons were treated with the antiepileptic drug rufinamide. Treatment with rufinamide reduced Midkine expression (see e.g., FIG. 47) and neuronal excitability (see e.g., FIG. 48).

Nf1-mutant neurons = experiment: Excitability of Nf1-mutant neurons; type: cell-based
Protocol: as §1

[9] = test system: human shNF1 Schwann cells; experiment: Human shNF1 Schwann cell proliferation (Ki67+); type: cell-based; settings: shNF1 SCs
Nf1-/- DRG-NSCs = experiment: Nf1-/- DRG-NSC proliferation (Ki67+); type: cell-based, mouse
COL1A2 [10] = experiment: COL1A2 RNA expression in human shNF1 Schwann cells; type: cell-based; settings: COL1A2 treatment
Col1a2 [11] = experiment: COL1A2 RNA expression in mouse Nf1-/- DRG-NSCs; type: cell-based; settings: COL1A2 treatment
[12] = test system: WT and Nf1+/1809 RGC neurons; type: cell-based, mouse
[13] = Nf1-OPG mice, LTR 25 mg/kg/day intraperitoneally, vs vehicle
[14] = Nf1-OPG mice, lamotrigine intraperitoneal, 3 months of age, vs vehicle
[15] = 25 mg/kg intraperitoneal three times a week for 6 weeks
[16] = 25 mg/kg intraperitoneal three times a week for 6 weeks, listed as LTR

Cc1ccc(=O)n(-c2ccccc2)c1 [Pirfenidone]
efficacy in human clinical trials (neurofibromas): no efficacy

NC1=N[C@H](O)[C@H]2[C@H]3O[C@]4(O)O[C@@H]([C@@H](O)[C@@]2(N1)[C@@H]4O)[C@]3(O)CO [TTX, tetrodotoxin]
effect on AP firing rate / RGC activity (Nf1+/neo RGC neurons): reduced | neuronal activity (AP firing rate), fold decrease (Nf1+/neo RGC neurons): > 80 fold | effect on AP firing rates [1]: reduced | effect on DRG neuron AP firing rate / neuronal activity (Nf1+/neo DRG neurons): reduce | effect on midkine secretion / expression (midkine [2]): reduced | midkine levels, fold decrease (midkine [2]): 1.9 fold | effect on midkine expression / secretion (midkine [3]): reduced | Col1a2 secretion / expression, fold reduction (Col1a2 [4]): 3.6 fold | reduction of Col1a2 secretion (Col1a2 [4]): 73% | effect on RAS activity (RAS-GTP) (RAS): reduced

Nc1nnc(-c2cccc(Cl)c2Cl)c(N)n1 [lamotrigine]
effect on AP firing rate / RGC activity (Nf1+/neo RGC neurons): reduced | firing rates, % decrease (Nf1+/neo RGC neurons): > 80% | effect on AP firing rates [1]: reduced | effect on DRG neuron AP firing rate / neuronal activity (Nf1+/neo DRG neurons): reduce | effect on midkine secretion / expression (midkine [2]): reduced | midkine levels, fold decrease (midkine [2]): 2.2 fold | effect on midkine expression / secretion (midkine [3]): reduced | Col1a2 secretion / expression, fold reduction (Col1a2 [4]): 1.8 fold | reduction of Col1a2 secretion (Col1a2 [4]): 47% | effect on RAS activity (RAS-GTP) (RAS): reduced | effect on midkine expression in the RGC layer of retinae [5]: reduced | effect on Mdk transcript relative expression in retinae ([5]; Nf1+/neo mice, LTR in vivo): decreased | Mdk RNA and protein levels in retinae, fold decrease ([5]; Nf1+/neo retinae, lamotrigine in vivo, relative to vehicle): 1.9-2.3 fold | Mdk levels in optic nerves, fold decrease ([5]; optic nerves, lamotrigine in vivo, relative to vehicle): 1.7-2 fold | effect on Adam10 RNA expression in vivo ([5]; retinae / optic nerves of 12 week-old Nf1+/neo or Nf1-OPG mice, lamotrigine in vivo): did not change; also recorded: unchanged | effect on Nlgn3 RNA expression in vivo ([5]; lamotrigine in vivo): did not change | effect on Nlgn3 RNA expression in vivo ([5]; lamotrigine in vivo, listed as LTR): unaltered | effect on CD3+ cells in optic nerves [6, 13]: reduced | effect on Iba1+ cells in optic nerves [6, 13]: reduced | effect on Ki67+ cells in optic nerves [6, 13]: reduced | effect on OPG development ([6]; Nf1-OPG mice, at 3 months of age): reduced | effect on optic nerve volumes ([6]; Nf1-OPG mice, lamotrigine intraperitoneal, 3 months of age): did not decrease | T-cell (CD3+ cells) content, fold decrease [6, 14]: 1.6 fold | microglia (% Iba1+ cells) content, fold decrease [6, 14]: 1.7 fold | optic nerve volumes relative to WT controls, fold increased ([6]; lamotrigine-treated Nf1-OPG mice): 1.5 fold | optic nerve proliferation (% Ki67+ cells), fold decrease [6]: 1.5 fold | optic nerve proliferation (% Ki67+ cells), fold decrease ([6]; ip): 5.7 fold | optic nerve proliferation (% Ki67+ cells), fold decrease ([6]; po, 10 mg/kg/day): 4 fold | microglia (% Iba1+ cells) content, fold decrease ([6]; treatment from 4-8 weeks, 6 month-old Nf1-OPG mice, vs vehicle): 1.4 fold | effect on Col1a2 production / immunoreactivity within the tumors [7, 15]: reduced | effect on neuronal histology (H&E) [7, 15]: partly restored | effect on pNF progression in vivo [7, 15]: decreases | effect on pNF size [7, 15]: reduced | effect on Col1a2 production / immunoreactivity within the tumors [7, 16]: decreases | effect on neuronal histology (H&E) [7, 16]: partly restores | effect on pNF size [7, 16]: reduces | effect on proliferation (Ki67+ cells) within the tumors ([7]; mouse, in vivo): reduces

CC[C@H](C)C(=O)O[C@H]1C[C@@H](C)C=C2C=C[C@H](C)[C@H](CC[C@@H]3C[C@@H](O)CC(=O)O3)[C@H]21 [lovastatin]
effect on midkine expression in the RGC layer of retinae [5]: decreased; also recorded: reduced

NC(=O)c1cn(Cc2c(F)cccc2F)nn1 [rufinamide]
effect on Mdk (Midkine transcript) levels / Midkine expression (Midkine [8]): reduces | effect on neuronal excitability (Nf1-mutant neurons): reduces

COL1A2: collagen-1A2; neurofibroma mitogen produced by peripheral neurons, applied to Schwann cells and DRG-NSCs
proliferation, fold increase in Ki67+ cells ([9]; COL1A2 12.5 μg/mL): 2.5-2.9 fold | proliferation, fold increase in Ki67+ cells (Nf1-/- DRG-NSCs; COL1A2 12.5 μg/mL): 2.5-2.9 fold | effect on COL1A2 RNA expression (COL1A2 [10]): increased | effect on COL1A2 RNA expression (Col1a2 [11]): increased

ZD7288
RGC neuron midkine production, fold increase (midkine [2]): 14-15 fold | effect on midkine production (midkine [2]): increased | effect on midkine expression / secretion (midkine [3]): increases | DRG Col1a2 secretion, fold increase (Col1a2 [4]): 2-2.8 fold | effect on Col1a2 secretion (Col1a2 [4]): increases | effect on Adam10 transcript expression [12]: did not alter | effect on Nlgn3 transcript expression [12]: did not alter

collagenase
effect on the increase in proliferation conferred by NF1-mutant sensory neuron CM or COL1A2 ([9]; collagenase): completely abrogated | effect on the increase in proliferation conferred by NF1-mutant sensory neuron CM or COL1A2 (Nf1-/- DRG-NSCs; collagenase): completely abrogated
